The values below come from PubChem BioAssay (NCI).

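A five-concentration, 48-hour dose response in 96-well plates underlies each endpoint, interpolated linearly between surrounding concentrations. Here, GI50 denotes the concentration required for 50% inhibition of growth. TGI: concentration producing complete growth inhibition.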 Where only a bound is given, the exact number is not on record here.

Some test systems named below: DU-145 prostate; HOP-92 NSCLC; K-562 leukemia; MOLT-4 leukemia; NCI-H460 lung; RXF 393 renal; SF-268 CNS; SW-620 colon; TK-10 renal; U251 CNS.
Holding throughout (experiment): NCI anticancer screen, dose series, 48 h

Consider `CCN1C(=O)C/C(=C\C(C)=O)Nc2ccccc21`, for which the GI50 in the experiment on DU-145 prostate is over 100000 nM. Also, the TGI in the experiment on DU-145 prostate, in the experiment with HOP-92 NSCLC, in the experiment with K-562 leukemia, with MOLT-4 leukemia, in the experiment with NCI-H460 lung and with RXF 393 renal was over 100 µM throughout. Moreover, the TGI is over 100 µM in the experiment with SF-268 CNS, over 100 µM in the experiment with SW-620 colon, over 100 µM with TK-10 renal and over 100000 nM in the experiment on U251 CNS.
Consider `COc1ccc(CN2C(=O)/C(=C\c3cc(OC)c(OC)c(OC)c3)c3cc(OC)ccc32)cc1`, for which the GI50 in the experiment on DU-145 prostate is 2960 nM; in the experiment with HOP-92 NSCLC, 1210 nM; in the experiment with K-562 leukemia it was 3.13 µM; with MOLT-4 leukemia it was 4.07 µM; in the experiment with NCI-H460 lung, 1910 nM; in the experiment with RXF 393 renal, 1630 nM. Moreover, the GI50 in the experiment on SF-268 CNS was 2680 nM; with SW-620 colon, 1820 nM; in the experiment with TK-10 renal it was 3.92 µM; with U251 CNS it was 1380 nM. Besides, the TGI is 7.64 µM in the experiment on DU-145 prostate; 16.8 µM in the experiment with HOP-92 NSCLC; over 35.5 µM in the experiment with K-562 leukemia; over 100 µM with MOLT-4 leukemia; 3.83 µM with NCI-H460 lung; 3.47 µM with RXF 393 renal. For the same compound, the TGI with SF-268 CNS was found to be 7.05 µM; in the experiment on SW-620 colon it was 3.41 µM; in the experiment on TK-10 renal, 18.6 µM; in the experiment on U251 CNS, 2670 nM.
